From PubChem BioAssay (NCI)
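Growth conditions: 96-well plates. Treatment: test compound, 48 hours, 5 concentrations. Analysis: linear interpolation between bracketing concentrations; unreached endpoints set to highest concentration. GI50 marks 50% less growth. TGI: total growth inhibition.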

Legend:
Assay in all cases: NCI-60 cell line screen, 48 h
OVCAR-5 ovarian = test system: OVCAR-5 ovarian
U251 CNS = test system: U251 CNS
SNB-19 CNS = test system: SNB-19 CNS
OVCAR-8 ovarian = test system: OVCAR-8 ovarian
UACC-62 melanoma = test system: UACC-62 melanoma
HCT-116 colon = test system: HCT-116 colon
NCI-H460 lung = test system: NCI-H460 lung
SK-MEL-28 melanoma = test system: SK-MEL-28 melanoma
MCF7 breast = test system: MCF7 breast
786-0 renal = test system: 786-0 renal
SF-539 CNS = test system: SF-539 CNS
A498 renal = test system: A498 renal
DU-145 prostate = test system: DU-145 prostate
SF-295 CNS = test system: SF-295 CNS
HL-60(TB) leukemia = test system: HL-60(TB) leukemia
HCC-2998 colon = test system: HCC-2998 colon
NCI/ADR-RES ovarian = test system: NCI/ADR-RES ovarian
MALME-3M melanoma = test system: MALME-3M melanoma
PC-3 prostate = test system: PC-3 prostate
RXF 393 renal = test system: RXF 393 renal
HT29 colon = test system: HT29 colon
LOX IMVI melanoma = test system: LOX IMVI melanoma
K-562 leukemia = test system: K-562 leukemia
COLO 205 colon = test system: COLO 205 colon
SK-MEL-2 melanoma = test system: SK-MEL-2 melanoma
NCI-H23 lung = test system: NCI-H23 lung
TK-10 renal = test system: TK-10 renal
ACHN renal = test system: ACHN renal
MDA-MB-435 = test system: MDA-MB-435
HS 578T breast = test system: HS 578T breast
EKVX NSCLC = test system: EKVX NSCLC
MOLT-4 leukemia = test system: MOLT-4 leukemia
A549 NSCLC = test system: A549 NSCLC
SK-OV-3 ovarian = test system: SK-OV-3 ovarian
UACC-257 melanoma = test system: UACC-257 melanoma
NCI-H522 lung = test system: NCI-H522 lung
T-47D breast = test system: T-47D breast
UO-31 renal = test system: UO-31 renal
RPMI-8226 leukemia = test system: RPMI-8226 leukemia
HOP-62 NSCLC = test system: HOP-62 NSCLC
NCI-H226 lung = test system: NCI-H226 lung
SF-268 CNS = test system: SF-268 CNS
M14 melanoma = test system: M14 melanoma
OVCAR-3 ovarian = test system: OVCAR-3 ovarian
BT-549 breast = test system: BT-549 breast
SN12C renal = test system: SN12C renal
SR leukemia = test system: SR leukemia
HCT-15 colon = test system: HCT-15 colon
KM12 colon = test system: KM12 colon
CCRF-CEM leukemia = test system: CCRF-CEM leukemia
SK-MEL-5 melanoma = test system: SK-MEL-5 melanoma
OVCAR-4 ovarian = test system: OVCAR-4 ovarian
IGROV1 ovarian = test system: IGROV1 ovarian
SW-620 colon = test system: SW-620 colon
MDA-MB-231 breast = test system: MDA-MB-231 breast
HOP-92 NSCLC = test system: HOP-92 NSCLC

CCCCN1CCCC[C@@H]1C(=O)N[C@H](C(=O)N(C)[C@H](C[C@@H](OC(C)=O)c1nc(C(=O)NC2CCC(C(=O)OC)CC2)cs1)C(C)C)C(C)C (some centres not stated) was tested, and the GI50 (OVCAR-5 ovarian) was 4750 nM, the TGI (OVCAR-5 ovarian) was over 25000 nM and the GI50 (U251 CNS) was 1180 nM. The TGI (U251 CNS) was over 25000 nM, the GI50 (SNB-19 CNS) was 1830 nM and the TGI (SNB-19 CNS) was over 25000 nM. The GI50 (OVCAR-8 ovarian) was 2100 nM, the TGI (OVCAR-8 ovarian) was over 25000 nM and the GI50 (UACC-62 melanoma) was 1060 nM. For the same compound, the TGI (UACC-62 melanoma) was over 25000 nM, the GI50 (HCT-116 colon) was 1000 nM and the TGI (HCT-116 colon) was over 25000 nM. The GI50 (NCI-H460 lung) was 1080 nM, the TGI (NCI-H460 lung) was over 25000 nM and the GI50 (SK-MEL-28 melanoma) was 17900 nM. For the same compound, the TGI (SK-MEL-28 melanoma) was over 25000 nM, the GI50 (MCF7 breast) was 806 nM and the TGI (MCF7 breast) was over 25000 nM. The GI50 (786-0 renal) was 1500 nM, the TGI (786-0 renal) was over 25000 nM and the GI50 (SF-539 CNS) was 1490 nM. It also gave a TGI (SF-539 CNS) of 11800 nM, a GI50 (A498 renal) of 6350 nM and a TGI (A498 renal) of over 25000 nM. The GI50 (DU-145 prostate) was 1310 nM, the TGI (DU-145 prostate) was over 25000 nM and the GI50 (SF-295 CNS) was 1010 nM. It also gave a TGI (SF-295 CNS) of 8060 nM, a GI50 (HL-60(TB) leukemia) of 732 nM and a TGI (HL-60(TB) leukemia) of 2170 nM. The GI50 (HCC-2998 colon) was 4020 nM, the TGI (HCC-2998 colon) was over 25000 nM and the GI50 (NCI/ADR-RES ovarian) was 3530 nM. It also gave a TGI (NCI/ADR-RES ovarian) of over 25000 nM, a GI50 (MALME-3M melanoma) of 1970 nM and a TGI (MALME-3M melanoma) of over 25000 nM. The GI50 (PC-3 prostate) was 1410 nM, the TGI (PC-3 prostate) was over 25000 nM and the GI50 (RXF 393 renal) was 995 nM. It also gave a TGI (RXF 393 renal) of 11600 nM, a GI50 (HT29 colon) of 960 nM and a TGI (HT29 colon) of 13600 nM. The GI50 (LOX IMVI melanoma) was 1360 nM, the TGI (LOX IMVI melanoma) was over 25000 nM and the GI50 (K-562 leukemia) was 691 nM. It also gave a TGI (K-562 leukemia) of over 25000 nM, a GI50 (COLO 205 colon) of 1260 nM and a TGI (COLO 205 colon) of 11500 nM. The GI50 (SK-MEL-2 melanoma) was 5280 nM, the TGI (SK-MEL-2 melanoma) was over 25000 nM and the GI50 (NCI-H23 lung) was 1500 nM. It also gave a TGI (NCI-H23 lung) of over 25000 nM, a GI50 (TK-10 renal) of over 25000 nM and a TGI (TK-10 renal) of over 25000 nM. It also gave a GI50 (ACHN renal) of 2390 nM, a TGI (ACHN renal) of over 25000 nM and a GI50 (MDA-MB-435) of 224 nM. It also gave a TGI (MDA-MB-435) of 736 nM, a GI50 (HS 578T breast) of 1960 nM and a TGI (HS 578T breast) of over 25000 nM. The GI50 (EKVX NSCLC) was 1150 nM, the TGI (EKVX NSCLC) was over 25000 nM and the GI50 (MOLT-4 leukemia) was 1180 nM. The TGI (MOLT-4 leukemia) was over 25000 nM, the GI50 (A549 NSCLC) was 1680 nM and the TGI (A549 NSCLC) was over 25000 nM. The GI50 (SK-OV-3 ovarian) was 2140 nM, the TGI (SK-OV-3 ovarian) was over 25000 nM and the GI50 (UACC-257 melanoma) was 2420 nM. The TGI (UACC-257 melanoma) was over 25000 nM, the GI50 (NCI-H522 lung) was 897 nM and the TGI (NCI-H522 lung) was 7040 nM. The GI50 (T-47D breast) was 1620 nM, the TGI (T-47D breast) was over 25000 nM and the GI50 (UO-31 renal) was 7060 nM. The TGI (UO-31 renal) was over 25000 nM, the GI50 (RPMI-8226 leukemia) was 1100 nM and the TGI (RPMI-8226 leukemia) was over 25000 nM. The GI50 (HOP-62 NSCLC) was 2350 nM, the TGI (HOP-62 NSCLC) was over 25000 nM and the GI50 (NCI-H226 lung) was 3840 nM. It also gave a TGI (NCI-H226 lung) of over 25000 nM, a GI50 (SF-268 CNS) of 2290 nM and a TGI (SF-268 CNS) of over 25000 nM. For the same compound, the GI50 (M14 melanoma) was 983 nM, the TGI (M14 melanoma) was 18100 nM and the GI50 (OVCAR-3 ovarian) was 1070 nM. It also gave a TGI (OVCAR-3 ovarian) of over 25000 nM, a GI50 (BT-549 breast) of 1400 nM and a TGI (BT-549 breast) of over 25000 nM. It also gave a GI50 (SN12C renal) of 2150 nM, a TGI (SN12C renal) of over 25000 nM and a GI50 (SR leukemia) of 242 nM. It also gave a TGI (SR leukemia) of over 25000 nM, a GI50 (HCT-15 colon) of 851 nM and a TGI (HCT-15 colon) of 16800 nM. It also gave a GI50 (KM12 colon) of 1070 nM, a TGI (KM12 colon) of over 25000 nM and a GI50 (CCRF-CEM leukemia) of 1100 nM. For the same compound, the TGI (CCRF-CEM leukemia) was over 25000 nM, the GI50 (SK-MEL-5 melanoma) was 1220 nM and the TGI (SK-MEL-5 melanoma) was over 25000 nM. For the same compound, the GI50 (OVCAR-4 ovarian) was 3950 nM, the TGI (OVCAR-4 ovarian) was over 25000 nM and the GI50 (IGROV1 ovarian) was 1880 nM. For the same compound, the TGI (IGROV1 ovarian) was over 25000 nM, the GI50 (SW-620 colon) was 1060 nM and the TGI (SW-620 colon) was over 25000 nM. For the same compound, the GI50 (MDA-MB-231 breast) was 1890 nM, the TGI (MDA-MB-231 breast) was 18200 nM and the GI50 (HOP-92 NSCLC) was 1130 nM. It also gave a TGI (HOP-92 NSCLC) of over 25000 nM.
